# According to ChEMBL document CHEMBL2074125 (Drug Metabol Pharmacokin, 2002):
# What was measured:
# [1] = target: T1, Solute carrier family 22 member 6 (Rattus norvegicus, UniProt O35956); assay: TP_TRANSPORTER: inhibition of PAH uptake in Xenopus laevis oocytes; type: functional, cell-based, Oocyte
# T1 sequence (O35956 whole entry): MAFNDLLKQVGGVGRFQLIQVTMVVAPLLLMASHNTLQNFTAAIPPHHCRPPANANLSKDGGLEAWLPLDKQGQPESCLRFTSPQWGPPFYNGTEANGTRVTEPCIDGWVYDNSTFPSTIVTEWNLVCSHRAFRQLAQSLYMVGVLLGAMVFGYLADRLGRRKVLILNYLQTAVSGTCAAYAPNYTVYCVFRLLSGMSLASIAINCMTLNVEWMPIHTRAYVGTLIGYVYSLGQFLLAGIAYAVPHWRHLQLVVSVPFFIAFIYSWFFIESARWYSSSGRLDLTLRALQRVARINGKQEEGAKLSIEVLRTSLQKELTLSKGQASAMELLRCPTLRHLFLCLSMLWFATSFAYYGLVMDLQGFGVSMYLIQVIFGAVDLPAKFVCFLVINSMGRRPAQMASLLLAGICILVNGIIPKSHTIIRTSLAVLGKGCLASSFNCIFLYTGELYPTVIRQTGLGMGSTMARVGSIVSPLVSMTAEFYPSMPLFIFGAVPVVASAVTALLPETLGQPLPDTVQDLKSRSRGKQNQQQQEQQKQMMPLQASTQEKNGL
# [2] = target: T1, Solute carrier family 22 member 6; assay: TP_TRANSPORTER: uptake in Xenopus laevis oocytes; type: functional, cell-based; conditions: oocyte
IC50 [1],Activity [2],SMILES
718 µM,substrate [+],CN(C)CCn1nnnc1SCC1=C(C(=O)O)N2C(=O)[C@@H](NC(=O)Cc3csc(N)n3)[C@H]2SC1 [CEFOTIAM]
,substrate [+],CC1=C(C(=O)O)N2C(=O)[C@@H](NC(=O)[C@H](N)c3ccccc3)[C@H]2SC1 [CEPHALEXIN ANHYDROUS]
